Test results published in ChEMBL document CHEMBL1201862, “PubChem BioAssay data set” (2004).
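Step 1: Grow cells in 96-well plates. Step 2: Expose to compound for 48 hours at 5 concentrations. Step 3: Interpolate endpoints linearly; if unreached, use highest concentration. GI50: concentration for 50% inhibition of growth.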 Calls of active or inactive are those of the source. Cut-off read from the data, not from the text of the source: active = GI50 up to about 1.1 µM and inactive = higher.

Key:
Assay in all cases: NCI tumour cell line growth inhibition, 48 h
[1] = system: 786-0
[2] = system: A498
[3] = system: COLO 205
[4] = system: HCC 2998
[5] = system: HCT-116
[6] = system: HCT-15
[7] = system: HL-60
[8] = system: K562
[9] = system: KM12
[10] = system: MOLT-4
[11] = system: NCI-H226
[12] = system: NCI-H23
[13] = system: RPMI-8226
[14] = system: RXF 393
[15] = system: SF-268
[16] = system: SF-539
[17] = system: SK-MEL-28
[18] = system: SK-OV-3
[19] = system: SN12C
[20] = system: SW-620

Row | SMILES | GI50 [1] | GI50 [2] | GI50 [3] | GI50 [4] | GI50 [5] | GI50 [6] [µM] | GI50 [7] | GI50 [8] | GI50 [9] | GI50 [10] | GI50 [11] | GI50 [12] | GI50 [13] | GI50 [14] | GI50 [15] | GI50 [16] | GI50 [17] | GI50 [18] | GI50 [19] | GI50 [20]
1 | O=C1/C(=C/c2ccccc2)CCC/C1=C\c1ccccc1 [2,6-DIBENZYLIDENECYCLOHEXANONE] | 12.8 µM (inactive) | 16.1 µM (inactive) | 17.9 µM (inactive) | 12.2 µM (inactive) | 1.71 µM (inactive) | 8.07 | 2.8 µM (inactive) | 3.58 µM (inactive) | 2.52 µM (inactive) | 3.95 µM (inactive) | 18.7 µM (inactive) | 12.8 µM (inactive) | 1.6 µM (inactive) | 17.8 µM (inactive) | 11 µM (inactive) | 16.6 µM (inactive) | 16.6 µM (inactive) | 21.4 µM (inactive) | 16.1 µM (inactive) | 2.6 µM (inactive)
2 | CN(CCN(C)CCN(C)C(=O)Cc1ccc(Cl)c(Cl)c1)CCN1CCCC1 | 19.5 µM (inactive) | 16.4 µM (inactive) | 16.3 µM (inactive) | 11.7 µM (inactive) | 25 µM (inactive) | 37.3 | 18.2 µM (inactive) | 3.24 µM (inactive) | 35 µM (inactive) | 10.6 µM (inactive) | 30.5 µM (inactive) | 30.5 µM (inactive) | 5.5 µM (inactive) | 16.2 µM (inactive) | 41.2 µM (inactive) | 21.8 µM (inactive) | 1.94 µM (inactive) | 46.8 µM (inactive) | 39 µM (inactive) | 20.3 µM (inactive)
